From US10413502B2, “Cosmetic use of a peppermint extract” (LVMH RECHERCHE, priority 2015, dated 2019)

System: gap junctions between keratinocytes
Experiment: Transfer of the dye lucifer yellow between keratinocytes via gap junctions
Format: cell-based
Details: substance alone

Structure (SMILES): C[C@H](NC(=O)Cc1cc(F)cc(F)c1)C(=O)N[C@H](C(=O)OC(C)(C)C)c1ccccc1 [DAPT, N—[N-(3,5-difluorophenacetyl)-L-alanyl]-S-phenylglycine t-butyl ester]
- diffusion of lucifer yellow between keratinocytes (exchanges via gap junctions): greatly reduced
